# Measurements from patent publication US7148013B2, “Complex of Hepatitis B virus polymerase with p11 and method for controlling movement of the complex in HepG2 cell” (Korea Institute of Science and Technology, priority 2002, dated 2006).
# System: HBVPol/p11 complex
# Experiment: Immunofluorescent experiment and confocal microscopy: intracellular location of HBVPol/p11 complex in HepG2 cells co-delivered with HBVPol and p11
# Assay type: cell-based, human
# Details: HepG2 cell co-delivered with HBVPol and p11
# Method: HepG2 was grown on a chamber slide charged with DMEM (supplemented with 0.1 mM non-essential amino acids and 10% FBS, culturing condition: 37° C., moisturized with a mixture of 95:5% (v/v) air and CO2), and Effectene (Qiagen) was used to deliver genes into the cell. Cells treated with EGTA and to which the gene was delivered, were washed with PBS and fixed with 100% methanol at −20° C. for 15 minutes. The slide was treated with a blocking solution (1% goat serum/PBS) at room temperature for 30 minutes and then reacted with anti-Myc rabbit (1:200) antibody against p11, anti-Flag rabbit (1:200) antibody against HBVPol, or anti-PML mouse (1:200) antibody at 4° C. for one day.
# After reaction, the cells were reacted with anti-rabbit or anti-mouse goat secondary antibody, to which rhodamine or fluorscein isothiocyanate was attached, at 37° C. and then a coverslip was attached thereto with mounting solution. […]
Compound,"intracellular location of HBVPol and p11 (0.5 mM for 48 hours, FIG. 5a)","intracellular location of HBVPol and p11 (30 uM for 24 hours, FIG. 5b)"
O=C(O)CN(CCOCCOCCN(CC(=O)O)CC(=O)O)CC(=O)O [EGTA],most of HBVPol and p11 migrated into the nucleus of the cell,
CC(C)[C@@H]1NC(=O)[C@H](C)OC(=O)[C@@H](C(C)C)NC(=O)[C@@H](C(C)C)OC(=O)[C@H](C(C)C)NC(=O)[C@H](C)OC(=O)[C@@H](C(C)C)NC(=O)[C@@H](C(C)C)OC(=O)[C@H](C(C)C)NC(=O)[C@H](C)OC(=O)[C@@H](C(C)C)NC(=O)[C@@H](C(C)C)OC1=O [valinomycine],,HBVPol and p11 remained in the cytoplasm of the cell
